Usually inhibition stands for the relative decrease from the control value, in per cent. Read a low inhibition as a weak effect. What is called % Inhibition is how much of the control response was suppressed.

Consider two compounds from US20130210911A1, “METHOD AND COMPOSITION FOR TREATING A DISEASE OR CONDITION RELATED TO OREXIN RECEPTOR 1, OREXIN RECEPTOR 2, SOMATOSTATIN RECEPTOR 2 OR DOPAMINE D2L RECEPTOR” (CENTER LABORATORIES, INC., priority 2009, published 2013).

The target in one assay is T1, Orexin receptor 1 (Homo sapiens, UniProt O43613).
T1 sequence (O43613 1-425): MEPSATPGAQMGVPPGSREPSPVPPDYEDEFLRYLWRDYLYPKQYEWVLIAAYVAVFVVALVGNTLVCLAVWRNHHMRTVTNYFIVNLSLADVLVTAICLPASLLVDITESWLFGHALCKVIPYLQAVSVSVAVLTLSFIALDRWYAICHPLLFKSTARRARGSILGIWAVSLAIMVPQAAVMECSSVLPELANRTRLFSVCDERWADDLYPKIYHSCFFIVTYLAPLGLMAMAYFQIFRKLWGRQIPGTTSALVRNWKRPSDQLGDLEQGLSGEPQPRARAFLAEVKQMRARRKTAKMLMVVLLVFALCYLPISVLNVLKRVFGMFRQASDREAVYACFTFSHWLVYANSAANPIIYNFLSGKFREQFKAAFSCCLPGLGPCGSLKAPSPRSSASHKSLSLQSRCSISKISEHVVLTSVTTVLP
The assay is described as follows: biochemical. The note with it: for nH (Hill coefficient): human orexin receptor 1 binding. As to the method:
(§1) Binding activity was evaluated to assess the selectivity of verapamil on various receptors. The binding activity of the reported receptors was analyzed using the following known methods. Primary screening were performed in duplicate and presented in semi-quantitative data (e.g., IC50, Ki and nH). Where presented, IC50 values were determined by a non-linear, least squares regression analysis using MathIQ™ (ID Bussiness Solutions Ltd., UK). […] Where presented, the Hill coefficient (nH), defining the slope of the competitive binding curve, was calculated using MathIQ™.
(§2) Orexin receptor 1 or 2 binding affinity was examined using the methods disclosed by Kukkonen et al., (2002) Am J Physiol Cell Physiol. 283:C1567-C1591; and Langmead et al., (2004) Br J Pharmacol. 141(2):340-346. […] Pharmacol. 58:254-264; and Spedding. (1984) M. Eur J Pharmacol. 83:211. Somaostatin receptor 2 binding activity was estimated by the method described by Feniuk et al., (1993) Br J Pharmacol. 110:1156-1164. Adenosine receptor binding activity was examined using the method described by Varani et al., (1996) Br J Pharmacol. 117:1693-1701. Bradykinin receptor binding activity was examined using the methods described by Horlick et al., (1999) Immunopharmacology 43(2-3):169-177; and Phagoo et al., (2001) J Pharmacol Exp Ther 298(1):77-85. Calcium channel (N-type) binding activity was examined using the method disclosed by Moresco et al., (1990) Neurobiol of Aging. 11(4):433-436. Cannabinoid receptor binding activity was examined using the method disclosed by Reggio et al., (1998) J Med Chem 41(26):5177-5187. […] Estrogen receptors (including ERα and ERβ) were examined using the method disclosed by Obourn et al., (1993) Biochem 32:6229-6236. GABA receptor (including GABAA and GABAB1A,) binding activity was examined using methods disclosed by Lewin et al., (1989) Mol Pharmacol 35:189-194; Maksay G. (1993) Eur J Pharmacol 246:255-260; Enna and Snyder, (1977) Mol Pharmacol. 13:442-453; Martini et al., (1983) J Neurochem. […] Leptin receptor binding activity was examined using the method disclosed by Fong et al., (1998) Mol Pharmacol 53:234-240. […] 75(6):2590-2601. Tachykinin receptor binding activity was examined using the method disclosed by Patacchini and Maggi, (1995) Arch Int Pharmacodyn. 329:161-184. Vanilloid receptor binding activity was examined using the methods disclosed by Szallasi et al., (1993) J Pharmacol Exp Ther. 267(2):728-733. Melatonin receptor binding activity was examined using the methods disclosed by Beresford et al., (1998) J Pharmacol Exp Ther 285(3):1239-1245; and Paul et al., (1999) J Pharmacol Exp Ther 290(1):334-340. Serotonin receptor binding activity was examined using the methods disclosed by Bonhaus et al., (1995) Br J Pharmacol 115:622-628; and Saucier and Albert (1997) J. Neuorchem 68:1998-2011.

Another assay concerns the target T2, Orexin receptor 2 (Homo sapiens, UniProt O43614).
T2 sequence (O43614 1-444): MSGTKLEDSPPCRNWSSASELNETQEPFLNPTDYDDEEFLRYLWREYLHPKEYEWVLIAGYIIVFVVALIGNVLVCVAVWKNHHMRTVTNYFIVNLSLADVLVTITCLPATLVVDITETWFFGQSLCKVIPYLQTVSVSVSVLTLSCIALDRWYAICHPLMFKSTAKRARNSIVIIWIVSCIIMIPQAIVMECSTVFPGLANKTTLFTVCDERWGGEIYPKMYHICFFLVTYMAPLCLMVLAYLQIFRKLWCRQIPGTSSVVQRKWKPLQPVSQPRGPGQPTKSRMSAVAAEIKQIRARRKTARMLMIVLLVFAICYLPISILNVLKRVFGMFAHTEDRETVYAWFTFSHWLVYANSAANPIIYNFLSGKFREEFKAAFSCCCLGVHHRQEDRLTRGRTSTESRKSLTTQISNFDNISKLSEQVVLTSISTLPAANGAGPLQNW
Nature of the assay: biochemical. The following applies: for nH (Hill coefficient): human orexin receptor 2 binding. On the procedure:
as §1, §2

For a further assay, the system named is Sodium Channel, Site 2. Nature of the assay: Sodium channel, site 2 binding assay. Details: species or system rat.
Another assay addresses Somatostatin receptor 2 (Cavia porcellus, UniProt A0A286XKC5). The assay is described as follows: Somatostatin tissue assay. The following applies: guinea pig tissue. The text has this: (§3) Orexin receptor 1 or 2 binding affinity was examined using the methods disclosed by Kukkonen et al., (2002) Am J Physiol Cell Physiol. 283:C1567-C1591; and Langmead et al., (2004) Br J Pharmacol. 141(2):340-346. […] Pharmacol. 58:254-264; and Spedding. (1984) M. Eur J Pharmacol. 83:211. Somaostatin receptor 2 binding activity was estimated by the method described by Feniuk et al., (1993) Br J Pharmacol. 110:1156-1164. Adenosine receptor binding activity was examined using the method described by Varani et al., (1996) Br J Pharmacol. 117:1693-1701. Bradykinin receptor binding activity was examined using the methods described by Horlick et al., (1999) Immunopharmacology 43(2-3):169-177; and Phagoo et al., (2001) J Pharmacol Exp Ther 298(1):77-85. Calcium channel (N-type) binding activity was examined using the method disclosed by Moresco et al., (1990) Neurobiol of Aging. 11(4):433-436. Cannabinoid receptor binding activity was examined using the method disclosed by Reggio et al., (1998) J Med Chem 41(26):5177-5187. […] Estrogen receptors (including ERα and ERβ) were examined using the method disclosed by Obourn et al., (1993) Biochem 32:6229-6236. […]

In the next assay the target is Dopamine D2L receptor (Homo sapiens, UniProt P14416).
Text: as §3

For another assay, the target named is N-type calcium channel (Rattus norvegicus, UniProt Q02294). Nature of the assay: Calcium channel (N-type) binding activity. The following applies: data not shown. The text has this:
(§4) Pharmacol. 58:254-264; and Spedding. (1984) M. Eur J Pharmacol. 83:211. […] 11(4):433-436. […] 75(6):2590-2601. […] 329:161-184.

In a further assay the test system is Serotonin receptor. The note with it: data not shown. On the procedure: as §1
Orexin receptor 1 or 2 binding affinity was examined using the methods disclosed by Kukkonen et al., (2002) Am J Physiol Cell Physiol. 283:C1567-C1591; and Langmead et al., (2004) Br J Pharmacol. 141(2):340-346. […] Pharmacol. 58:254-264; and Spedding. (1984) M. Eur J Pharmacol. 83:211. Somaostatin receptor 2 binding activity was estimated by the method described by Feniuk et al., (1993) Br J Pharmacol. 110:1156-1164. Adenosine receptor binding activity was examined using the method described by Varani et al., (1996) Br J Pharmacol. 117:1693-1701. Bradykinin receptor binding activity was examined using the methods described by Horlick et al., (1999) Immunopharmacology 43(2-3):169-177; and Phagoo et al., (2001) J Pharmacol Exp Ther 298(1):77-85. […]

The next assay deals with Melatonin receptor. The assay is described as follows: Melatonin receptor binding activity. The following applies: data not shown.
Text: as §4

Where a name gives a salt, the structure may show the parent alone. Read-outs that look alike come from different tables or passages of the source.

Somatostatin receptor 2, sequence (A0A286XKC5 1-368): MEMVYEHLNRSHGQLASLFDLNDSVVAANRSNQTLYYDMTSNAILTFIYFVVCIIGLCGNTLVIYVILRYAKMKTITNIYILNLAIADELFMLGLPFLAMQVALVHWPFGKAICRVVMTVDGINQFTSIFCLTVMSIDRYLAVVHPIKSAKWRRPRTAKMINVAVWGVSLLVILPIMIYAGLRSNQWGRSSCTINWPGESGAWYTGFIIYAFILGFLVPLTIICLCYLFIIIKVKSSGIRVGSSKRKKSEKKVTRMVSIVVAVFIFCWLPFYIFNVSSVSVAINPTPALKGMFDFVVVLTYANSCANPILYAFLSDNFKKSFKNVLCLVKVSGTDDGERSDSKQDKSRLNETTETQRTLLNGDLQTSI
N-type calcium channel, sequence (P54287 whole entry): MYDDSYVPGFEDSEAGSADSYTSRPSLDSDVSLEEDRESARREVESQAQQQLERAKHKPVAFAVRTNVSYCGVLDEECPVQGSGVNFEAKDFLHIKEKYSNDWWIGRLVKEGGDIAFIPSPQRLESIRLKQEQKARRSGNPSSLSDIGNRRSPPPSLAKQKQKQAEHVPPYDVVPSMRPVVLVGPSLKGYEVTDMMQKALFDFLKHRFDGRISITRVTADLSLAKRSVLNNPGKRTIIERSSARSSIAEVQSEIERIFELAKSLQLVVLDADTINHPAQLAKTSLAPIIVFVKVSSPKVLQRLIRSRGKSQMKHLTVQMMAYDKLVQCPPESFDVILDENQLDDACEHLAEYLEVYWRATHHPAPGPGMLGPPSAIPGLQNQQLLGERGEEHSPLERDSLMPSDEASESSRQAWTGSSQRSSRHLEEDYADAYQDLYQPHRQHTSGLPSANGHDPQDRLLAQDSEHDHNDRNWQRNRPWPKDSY
N-type calcium channel, sequence (P54290 945-1091, further chain): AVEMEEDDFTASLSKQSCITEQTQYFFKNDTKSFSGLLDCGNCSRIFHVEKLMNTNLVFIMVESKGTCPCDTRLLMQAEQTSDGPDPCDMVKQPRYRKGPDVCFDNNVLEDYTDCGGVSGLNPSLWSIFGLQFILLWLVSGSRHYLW
N-type calcium channel, sequence (Q02294 whole entry): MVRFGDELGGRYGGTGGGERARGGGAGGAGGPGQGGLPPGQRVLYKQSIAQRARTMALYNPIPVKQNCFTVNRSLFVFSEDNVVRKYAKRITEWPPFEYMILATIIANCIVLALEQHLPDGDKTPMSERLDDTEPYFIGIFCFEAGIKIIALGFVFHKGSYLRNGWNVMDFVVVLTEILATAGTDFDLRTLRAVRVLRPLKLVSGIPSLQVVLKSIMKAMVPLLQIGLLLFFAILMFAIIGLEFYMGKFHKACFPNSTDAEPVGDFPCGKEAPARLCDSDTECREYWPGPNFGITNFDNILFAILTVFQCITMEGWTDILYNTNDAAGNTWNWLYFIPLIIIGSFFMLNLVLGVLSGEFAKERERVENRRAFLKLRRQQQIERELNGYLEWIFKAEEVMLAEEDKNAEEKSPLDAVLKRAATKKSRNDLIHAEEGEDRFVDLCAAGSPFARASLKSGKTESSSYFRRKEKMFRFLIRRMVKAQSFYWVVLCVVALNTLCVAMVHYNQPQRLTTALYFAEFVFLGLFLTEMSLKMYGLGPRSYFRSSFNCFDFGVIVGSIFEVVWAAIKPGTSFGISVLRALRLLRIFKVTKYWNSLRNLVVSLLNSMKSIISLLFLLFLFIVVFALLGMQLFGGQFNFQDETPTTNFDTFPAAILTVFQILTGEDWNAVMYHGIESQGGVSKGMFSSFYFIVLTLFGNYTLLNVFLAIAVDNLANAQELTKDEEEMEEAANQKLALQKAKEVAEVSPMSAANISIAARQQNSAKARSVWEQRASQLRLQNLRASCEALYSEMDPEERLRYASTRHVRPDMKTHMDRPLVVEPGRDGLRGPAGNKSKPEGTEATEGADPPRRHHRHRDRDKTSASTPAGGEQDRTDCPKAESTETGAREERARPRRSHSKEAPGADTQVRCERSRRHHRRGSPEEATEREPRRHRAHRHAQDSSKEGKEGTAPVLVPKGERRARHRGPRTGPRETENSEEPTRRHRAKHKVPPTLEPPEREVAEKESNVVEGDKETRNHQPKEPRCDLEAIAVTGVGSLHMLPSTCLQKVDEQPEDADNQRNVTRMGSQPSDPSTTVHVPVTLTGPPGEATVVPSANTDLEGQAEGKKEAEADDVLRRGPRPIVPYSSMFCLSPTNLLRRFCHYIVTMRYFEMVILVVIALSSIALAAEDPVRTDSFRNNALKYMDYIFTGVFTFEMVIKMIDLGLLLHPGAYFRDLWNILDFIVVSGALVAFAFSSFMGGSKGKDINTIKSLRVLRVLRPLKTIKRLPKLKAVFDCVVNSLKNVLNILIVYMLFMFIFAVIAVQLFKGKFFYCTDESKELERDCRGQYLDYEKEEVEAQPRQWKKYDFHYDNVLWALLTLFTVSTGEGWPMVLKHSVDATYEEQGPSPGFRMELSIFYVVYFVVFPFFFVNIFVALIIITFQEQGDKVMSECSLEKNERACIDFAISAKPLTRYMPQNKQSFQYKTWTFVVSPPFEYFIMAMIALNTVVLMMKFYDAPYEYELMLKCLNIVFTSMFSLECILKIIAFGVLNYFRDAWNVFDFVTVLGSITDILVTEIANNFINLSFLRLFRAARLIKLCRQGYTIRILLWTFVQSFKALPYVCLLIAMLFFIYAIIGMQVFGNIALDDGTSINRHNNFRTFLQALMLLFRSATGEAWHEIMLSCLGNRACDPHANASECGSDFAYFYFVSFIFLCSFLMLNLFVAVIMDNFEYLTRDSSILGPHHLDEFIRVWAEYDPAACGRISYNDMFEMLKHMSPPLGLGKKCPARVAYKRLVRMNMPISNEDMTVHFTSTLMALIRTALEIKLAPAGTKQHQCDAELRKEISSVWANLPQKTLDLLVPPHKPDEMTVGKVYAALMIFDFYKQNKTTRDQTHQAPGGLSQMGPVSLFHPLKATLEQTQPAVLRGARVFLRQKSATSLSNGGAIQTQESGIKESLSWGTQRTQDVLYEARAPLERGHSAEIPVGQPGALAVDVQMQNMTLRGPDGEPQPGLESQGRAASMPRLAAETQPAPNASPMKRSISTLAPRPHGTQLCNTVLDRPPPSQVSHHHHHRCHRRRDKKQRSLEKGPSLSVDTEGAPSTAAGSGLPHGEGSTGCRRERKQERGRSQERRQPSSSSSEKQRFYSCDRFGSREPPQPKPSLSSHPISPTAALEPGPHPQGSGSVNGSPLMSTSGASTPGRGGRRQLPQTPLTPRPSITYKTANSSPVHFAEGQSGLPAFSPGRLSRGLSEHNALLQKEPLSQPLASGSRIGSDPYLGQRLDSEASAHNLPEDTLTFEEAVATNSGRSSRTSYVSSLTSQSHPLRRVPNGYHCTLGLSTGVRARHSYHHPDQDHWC
N-type calcium channel, sequence (P54290 25-944, further chain): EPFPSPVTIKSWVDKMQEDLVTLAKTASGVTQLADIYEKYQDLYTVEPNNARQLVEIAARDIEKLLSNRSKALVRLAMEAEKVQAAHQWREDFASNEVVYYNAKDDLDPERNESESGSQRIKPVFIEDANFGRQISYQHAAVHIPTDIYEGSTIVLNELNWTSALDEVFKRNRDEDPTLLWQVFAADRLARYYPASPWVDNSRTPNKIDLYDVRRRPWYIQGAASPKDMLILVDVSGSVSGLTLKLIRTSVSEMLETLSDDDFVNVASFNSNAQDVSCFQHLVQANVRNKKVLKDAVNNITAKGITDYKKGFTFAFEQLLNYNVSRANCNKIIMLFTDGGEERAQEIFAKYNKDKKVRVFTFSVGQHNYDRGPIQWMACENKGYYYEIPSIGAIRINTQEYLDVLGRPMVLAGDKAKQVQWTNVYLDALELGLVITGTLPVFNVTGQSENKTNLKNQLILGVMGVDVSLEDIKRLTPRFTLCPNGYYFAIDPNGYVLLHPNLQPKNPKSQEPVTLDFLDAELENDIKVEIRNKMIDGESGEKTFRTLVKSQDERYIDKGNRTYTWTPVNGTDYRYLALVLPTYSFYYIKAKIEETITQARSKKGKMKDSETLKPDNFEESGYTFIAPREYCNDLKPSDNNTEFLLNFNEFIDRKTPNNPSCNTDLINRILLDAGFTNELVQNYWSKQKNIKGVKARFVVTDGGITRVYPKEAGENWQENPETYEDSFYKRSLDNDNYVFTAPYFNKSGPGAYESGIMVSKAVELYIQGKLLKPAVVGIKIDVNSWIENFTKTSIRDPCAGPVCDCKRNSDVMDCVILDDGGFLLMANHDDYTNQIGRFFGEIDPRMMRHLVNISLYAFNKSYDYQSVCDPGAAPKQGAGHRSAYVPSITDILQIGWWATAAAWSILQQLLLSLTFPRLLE
Dopamine D2L receptor, sequence (P14416 whole entry): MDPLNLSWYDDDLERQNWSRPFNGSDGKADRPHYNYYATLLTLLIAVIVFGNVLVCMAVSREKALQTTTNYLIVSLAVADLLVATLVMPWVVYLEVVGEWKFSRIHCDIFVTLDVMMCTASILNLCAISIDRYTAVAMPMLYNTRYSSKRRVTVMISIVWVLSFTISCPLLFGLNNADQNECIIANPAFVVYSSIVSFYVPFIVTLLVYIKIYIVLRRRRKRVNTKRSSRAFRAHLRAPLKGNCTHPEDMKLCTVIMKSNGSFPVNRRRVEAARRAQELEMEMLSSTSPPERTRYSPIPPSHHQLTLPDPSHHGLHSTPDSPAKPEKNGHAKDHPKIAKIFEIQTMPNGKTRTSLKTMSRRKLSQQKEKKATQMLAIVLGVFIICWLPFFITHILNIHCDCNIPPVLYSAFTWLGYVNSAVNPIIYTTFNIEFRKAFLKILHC

Take `COc1ccc(CCN(C)CCC[C@](C#N)(c2ccc(OC)c(OC)c2)C(C)C)cc1OC` [(R)-(+)-verapamil hydrochloride]: the inhibition at 300 µM against Orexin receptor 1 was determined as 57%. The “nH (Hill coefficient)” value on Orexin receptor 1 is 1.31; on Orexin receptor 2 it was 1.81. This compound also returned an inhibition at 100 µM against Orexin receptor 2 of 56%. In addition, in the assay with Sodium Channel, Site 2 (rat sodium channel site 2, conc. 10 μM), the “% Inhibition” value worked out at 72%. Further, on Somatostatin receptor 2 (conc. 3 μM), the “AG. (%) (agonist)” value is given as 69%. The “ANT. (%) (antagonist)” value at Dopamine D2L receptor (conc. 10 μM) was 58%. In addition, the “binding (in words)” value on N-type calcium channel, with Serotonin receptor and in the assay with Melatonin receptor was “significant binding” in each case.

For the compound `COc1ccc(CCN(C)CCC[C@@](C#N)(c2ccc(OC)c(OC)c2)C(C)C)cc1OC` [(S)-(−)-verapamil hydrochloride], the inhibition at 100 µM at Orexin receptor 1 is 58%; against Orexin receptor 2, 79%. Besides, the “nH (Hill coefficient)” value at Orexin receptor 1 is given as 1.27; at Orexin receptor 2 it was 1.33. Besides, the “% Inhibition” value in the assay on Sodium Channel, Site 2 (rat sodium channel site 2, conc. 3 μM) was found to be 75%. The “AG. (%) (agonist)” value on Somatostatin receptor 2 (conc. 0.3 μM) is given as 61%. For the same compound, at Dopamine D2L receptor (conc. 3 μM), the “ANT. (%) (antagonist)” value came to 66%. Moreover, the “binding (in words)” value at N-type calcium channel, in the assay with Serotonin receptor and in the assay with Melatonin receptor was “significant binding” each time.
